Laboratory results: ChEMBL document CHEMBL3046174, “Docking and CoMFA study on novel human CCR5 receptor antagonists” (Med Chem Res, 2013)
pIC50: −log10 of the molar value.

These compounds were tested against C-C chemokine receptor type 5 (Homo sapiens, UniProt P51681) (assay: Antagonist activity at Homo sapiens (human) CCR5 receptor).
Sequence of C-C chemokine receptor type 5 (P51681 whole entry): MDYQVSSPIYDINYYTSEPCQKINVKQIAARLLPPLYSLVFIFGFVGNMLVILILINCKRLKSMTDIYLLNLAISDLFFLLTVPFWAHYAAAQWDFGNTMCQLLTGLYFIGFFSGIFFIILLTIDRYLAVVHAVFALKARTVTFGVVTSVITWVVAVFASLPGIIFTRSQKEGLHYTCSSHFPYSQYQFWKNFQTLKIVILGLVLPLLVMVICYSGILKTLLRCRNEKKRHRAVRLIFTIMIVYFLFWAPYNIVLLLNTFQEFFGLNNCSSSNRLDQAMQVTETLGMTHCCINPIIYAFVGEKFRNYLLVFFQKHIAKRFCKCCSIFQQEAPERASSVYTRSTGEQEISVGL

pIC50 | Structure (SMILES)
6.00 | Brc1ccc(COc2ccc(Br)cc2N2CCOCC2)cc1
6.68 | CC1CCN(CC2(O)CCN(Cc3cc(Br)ccc3OCc3ccc(Cl)cc3)CC2)CC1
6.08 | N=C(N)N/N=C/c1cc(Br)ccc1OCc1cccc(Cl)c1
5.82 | Cc1ccc(NC(=O)NCC2(O)CCC(Cc3cc(Br)ccc3OCc3ccc(Cl)cc3)CC2)cc1 (stereo not drawn)
6.35 | O=C(NCC1(O)CCC(Cc2cc(Br)ccc2OCc2ccc(Cl)cc2)CC1)Nc1c(Cl)cc(Cl)cc1Cl (stereo not drawn)
7.03 | C/C(=N\NC(=N)N)c1cc(Br)ccc1OCc1ccc(C#N)cc1
6.40 | CC/C(=N\NC(=N)N)c1cc(Br)ccc1OCc1ccc(Cl)cc1
6.22 | CN(C)c1cc(Br)ccc1OCc1ccc(Cl)cc1
6.50 | O=C(NCC1(O)CCC(Cc2cc(Br)ccc2OCc2ccc(Cl)cc2)CC1)Nc1c(F)cccc1F (stereo not drawn)
7.24 | O=C(NCC1(O)CCC(Cc2cc(Br)ccc2OCc2ccc(Cl)cc2)CC1)Nc1c(Cl)cccc1Cl (stereo not drawn)
6.77 | Cc1cc(Br)cc(C)c1NC(=O)NCC1(O)CCC(Cc2cc(Br)ccc2OCc2ccc(Cl)cc2)CC1 (stereo not drawn)
7.00 | Cc1cc(C)c(NC(=O)NCC2(O)CCC(Cc3cc(Br)ccc3OCc3ccc(Cl)cc3)CC2)c(C)c1 (stereo not drawn)
7.33 | Cc1cccc(C)c1NC(=O)NCC1(O)CCC(Cc2cc(Br)ccc2OCc2ccc(Cl)cc2)CC1 (stereo not drawn)
7.96 | CCc1cccc(CC)c1NC(=O)NCC1(O)CCC(Cc2cc(Br)ccc2OCc2ccc(Cl)cc2)CC1 (stereo not drawn)
7.46 | CC(C)c1cccc(C(C)C)c1NC(=O)NCC1(O)CCC(Cc2cc(Br)ccc2OCc2ccc(Cl)cc2)CC1 (stereo not drawn)
5.43 | N=C(N)N/N=C/c1cc(Br)ccc1OCc1ccc(F)c(F)c1
5.85 | CCN(CC)c1cc(Br)ccc1OCc1ccc(Cl)cc1
6.22 | N=C(N)N/N=C/c1cc(Br)ccc1OCc1ccc(Cl)cc1
